Converted amounts (≈) assume the structure as drawn. Like-named read-outs stand apart in the source and are kept apart here.
Tests used:
[1] = Metabolic stability in rat liver microsomes; assay type: in vitro ADME; conditions: for CLi Rat LM (intrinsic clearance) / half-life at 5 μM: rat liver microsomes 1 mg protein/mL, 5 μM compound, mean±SD; for CLi Rat LM (intrinsic clearance): 37 °C; for half-life at 5 μM: NADPH-regenerating system, pH 7.4, 37 °C, read-out: t 1/2 Rat LM
Procedure: (§3) Each compound (final concentration: 5 μM) was incubated in the presence of rat or human liver microsomes (final concentration: 1 mg protein/mL) and of a NADPH‐regenerating system (final concentrations: 2 mM NADP^+, 10 mM glucose‐6‐phosphate, 0.4 U mL^−1 glucose‐6‐phosphate dehydrogenase, 5 mM MgCl2) in a 10 mM Phosphate Buffered Saline (PBS) solution, pH 7.4, at 37 °C. Compound was added after a 10 min pre‐incubation at 37 °C and. at stated time points, depending on compound kinetics, sample aliquots were withdrawn, metabolic reaction was quenched by acetonitrile addition (1 : 2), and after a centrifugation step (9000 g, 10 min, 4 °C) the supernatant was analyzed by HPLC‐UV‐VIS.
(§4) Apparent half‐lives (t1/2 in min) for the metabolic clearance of compounds were calculated from the pseudo first‐order rate constants (k) obtained by linear regression of the log chromatographic peak area versus time plots and are reported as means of three experiments±standard deviation. Intrinsic clearance (CLi) values of the compounds were calculated using the following equation: CLi (μL×min^−1×mg protein^−1)=k×V where V (μL×mg protein^−1)=incubation volume/mg protein added.
(§5) Pooled rat and human liver microsomes (20 mg/mL) were supplied by BD Biosciences (BD Biosciences, Woburn, MA, USA). Acetonitrile and methanol were HPLC grade and were supplied by Sigma‐Aldrich (Sigma‐Aldrich srl, Milan, Italy). Water was freshly bidistilled before use. All other reagents were purchased in the highest purity available.
(§6) PeakSimple 2.83 software was employed for data acquisition and HPLC peak integration. HPLC columns were a RP‐C18 Supelco Discovery (Supelco, Bellefonte, PA, USA), 5 μm, 150×4.6 mm i.d. for all compounds except 13, and a Phenomenex Gemini, 5 μm, 150×4.6 mm i.d. for compound 13 (Phenomenex). Elution conditions were optimized for each compound at a flow rate of 1 mL min^−1 employing mobile phases consisting of water and acetonitrile at different percentages, while UV detection was set at λ = 254 nm. For compound 13, the mobile phase consisted of a 10 mM ammonium acetate buffer pH 7.0 and methanol and the UV detection was set at λ = 281 nm.

[2] = Metabolic stability in human liver microsomes; assay type: in vitro ADME; conditions: for CLi Human LM (intrinsic clearance) / half-life at 5 μM: human liver microsomes 1 mg protein/mL, 5 μM compound, mean±SD; for CLi Human LM (intrinsic clearance): 37 °C; for half-life at 5 μM: NADPH-regenerating system, pH 7.4, 37 °C, read-out: t 1/2 Human LM
Procedure: as §3, §4, §5, §6

[3] = Thermodynamic solubility, shake flask method; assay type: physicochemical; conditions: thermodynamic from solid, room temperature overnight, mean±SD, triplicate
Procedure: Thermodynamic solubility values were measured in two different buffers (pH 1.0; pH 7.4) by the shake flask method.[65] 1 mg of each compound was placed in 1 mL of appropriate buffer and shaken at room temperature overnight. The resulting suspension was centrifuged (10 min, 10000 g, 20 °C) and the supernatant analyzed by HPLC‐UV. Solubility values were interpolated from calibration curves prepared from concentrated DMSO stock solutions of each compound. Reported solubility values are the mean of three measurements±standard deviation.
It consisted of a LC‐10ADvp solvent delivery module, a 20 μL Rheodyne sample injector (Rheodyne LLC, Rohnert Park, CA, USA) and a SPD‐10Avp UV‐VIS detector. PeakSimple 2.83 software was employed for data acquisition and HPLC peak integration. […] Elution conditions were optimized for each compound at a flow rate of 1 mL min^−1 employing mobile phases consisting of water and acetonitrile at different percentages, while UV detection was set at λ = 254 nm.

[4] = Experimental lipophilicity, shake-flask n-octanol/water; assay type: physicochemical; conditions: n-octanol/50 mM MOPS buffer pH 7.4, 25±1 °C, mean±SD of three, read-out: Log D oct,7.4
Procedure: Chosen buffer was 50 mM zwitterionic MOPS (3‐morpholinopropanesulfonic acid), pH 7.4 to avoid ionic couple partitioning, with ionic strength adjusted to 0.15 M by KCl addition. Compounds, after partitioning overnight, and dilution of both phases with methanol, were dosed in the HPLC‐UV system, as detailed below. Reported log D oct,7.4 values are the mean of three measurements±standard deviation.
HPLC columns were a RP‐C18 Supelco Discovery (Supelco, Bellefonte, PA, USA), 5 μm, 150×4.6 mm i.d. for all compounds except 13, and a Phenomenex Gemini, 5 μm, 150×4.6 mm i.d. for compound 13 (Phenomenex). Elution conditions were optimized for each compound at a flow rate of 1 mL min^−1 employing mobile phases consisting of water and acetonitrile at different percentages, while UV detection was set at λ = 254 nm. For compound 13, the mobile phase consisted of a 10 mM ammonium acetate buffer pH 7.0 and methanol and the UV detection was set at λ = 281 nm.

human MT1 receptors [5] = molecular target: T1, human MT1 receptors (Homo sapiens, UniProt P48039); experiment: Radioligand binding, 2-[125I]iodomelatonin competition at MT1; conditions: cloned human MT1 in CHO cells; from IC50 by Cheng-Prusoff; mean±SD of three determinations; read-out: MT1 K i
Procedure: (§7) After incubation, the % of radioligand binding inhibition was determined via a scintillation counting method. The radioligand binding experiments were performed in triplicate. IC50 values were determined by nonlinear regression analysis of the competition curves using Hill equation curve fitting. The pK i values were calculated from the IC50 values in accordance with the Cheng‐Prusoff equation.[28]

human MT2 receptors [6] = molecular target: T2, human MT2 receptors (Homo sapiens, UniProt P49286); experiment: Radioligand binding, 2-[125I]iodomelatonin competition at MT2; conditions: cloned human MT2 in CHO cells; from IC50 by Cheng-Prusoff; mean±SD of three determinations; read-out: MT2 K i
T2 sequence (P49286 1-362): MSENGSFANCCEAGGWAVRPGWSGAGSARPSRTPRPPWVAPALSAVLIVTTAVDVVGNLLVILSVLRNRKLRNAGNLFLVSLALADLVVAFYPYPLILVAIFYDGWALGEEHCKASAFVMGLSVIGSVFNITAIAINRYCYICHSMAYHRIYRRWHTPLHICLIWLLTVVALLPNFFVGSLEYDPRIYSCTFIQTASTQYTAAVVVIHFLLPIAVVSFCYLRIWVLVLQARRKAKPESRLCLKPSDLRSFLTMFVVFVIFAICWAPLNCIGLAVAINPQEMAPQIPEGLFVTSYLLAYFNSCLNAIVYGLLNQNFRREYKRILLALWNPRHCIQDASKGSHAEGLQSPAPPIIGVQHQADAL
Procedure: as §7

human MT2 receptors [7] = molecular target: T2, human MT2 receptors; experiment: Agonist activity at MT2, cAMP assay; assay type: cell-based; conditions: for EC50: cAMP assay, CHO cells expressing human MT2, mean±SD, triplicate; for functional profile (intrinsic activity): cAMP functional assay at MT2 (with MT1 cell impedance data of Table 3); for Emax: read-out: MT2 E max
Procedure: (§1) The in vitro pharmacology experiments were conducted at Cerep (Celle‐Lévescault, France) following radioligand binding and cellular functional assays developed elsewhere.[60, 61, 62]
(§2) To define the functional activity of the new compounds, cellular functional assays were performed on CHO cells stably expressing human MT1 or MT2 receptors. Agonist activity at MT1 receptors was evaluated using a cell impedance assay measured by cellular dielectric spectroscopy,[62] and at MT2 receptors with an cAMP assay, measured by a fluorometric method.[61] The EC50 values were determined by non‐linear regression analysis of the concentration‐response curves. Experiments were performed in triplicate.

[8] = In vivo pharmacokinetic study in rat plasma; set-up: species or system Sprague‐Dawley rats; conditions: for Vd / bioavailability / AUC / Cmax / clearance / half-life: male; for Vd / bioavailability: plasma; for Vd / bioavailability / F (oral bioavailability): rat; for Vd: read-out: V ss; for bioavailability / F (oral bioavailability): PO 40 mg kg^−1 vs IV 5 mg kg^−1; for bioavailability: read-out: F (oral bioavailability); for AUC / Cmax / clearance / half-life: rat plasma
Procedure: To evaluate the in vivo behavior of the two melatonergic ligands 14 and 19, a preliminary pharmacokinetic (PK) study was carried out in male Sprague‐Dawley rats. The compounds were administered as intravenous bolus (IV) or by oral gavage (PO) at doses of 5 or 40 mg kg^−1, respectively. Quantitative analysis was carried out by UPLC/MS/MS and the plasma concentration profiles are shown in Figure 3, while the main PK parameters are listed in Table 4.
The in vivo pharmacokinetic experiments were conducted at NiKem Research (Baranzate – Milan – Italy). PK studies were performed using Sprague‐Dawley CD (albino) male rats (7–9 weeks‐old, weight 160–200 grams, Charles River Lab. Italia, Calco). Animals were housed under standard conditions and had free access to water and standard laboratory rodent diet. Care and husbandry of animals were in conformity with the institutional guidelines, in compliance with national and international laws and policies (EEC Council Directive 86/609, OJL 358 m, 1, Dec. 122, 1987; NIH Guide for the care and Use of Laboratory Animals, NIH Publication No. 86–23, 1985). The compounds were dissolved in water containing 3 % DMSO and 20 % Encapsin (and a stechiometric amount of HCl for 14) at a concentration of 2.5 mg mL^−1 for the IV (bolus) dose, or in water containing 5 % DMSO and 10 % encapsin (and a stechiometric amount of HCl for 14) at a concentration of 4 mg mL^−1 for PO (gavage) dose. Rats were randomly assigned to four treatment groups (n=3) and received a single IV bolus dose (5 mg kg^−1) or a single oral administration (40 mg kg^−1) through oral gavage of compound 14 or 19. Serial blood samples ([…]) were collected from caudal vein at 5, 30, 60, 120, 480 and 1440 min after IV injection, or at 15, 30, 60, 120, 480 and 1440 min after PO administration. Blood samples were collected in heparinized eppendorfs (Heparin Vister 5000 U.I./mL_Marvecs Pharma), gently mixed and placed on ice; then blood was centrifuged (3500×g, at 4 °C for 15 min), the plasma was collected and immediately frozen at −80 °C until submission to UPLC/MS/MS analysis. For the sample preparation, 100 μL of plasma spiked with 5 μL of internal standard (I.S.; 19 for compound 14 and 14 for compound 19; 2.5 μg mL^−1;) were added to a SW96 deep well plate (Waters) containing 300 μL of acetonitrile. The plate was shaken for 10 min and then centrifuged at 3000 rpm for 15 min. UPLC/MS/MS analyses were performed on an Acquity UPLC, coupled with a sample organizer and interfaced with a triple quadrupole Premiere XE (Waters, Milford, USA). LC runs (inj. vol. 5 μL) were carried out at 50 °C on Acquity BEH C18 columns (1.7 μm, 2.1×50 mm) at a flow rate of 0.45 mL min^−1. Mobile phases consisted of a phase A (water) and a phase B (0.1 % formic acid in acetonitrile). The column was conditioned with 2 % phase B for 0.2 min, then brought to 100 % phase B within 0.6 min and maintained at these conditions for 1.1 min. Analyses were carried out using a positive electrospray ionization [ESI(+)] interface in multiple reaction monitoring (MRM) mode. Capillary 3.5 Kv; extractor 3 V; source T 140 °C, desolvation T 450 °C. Transitions: for compound 14 Q1/Q3 315.2/86, CV 14, CE16+315.2/238 CV 14, CE19; for I.S. (compound 19): 301.1/86 CV 14 CE16; LLOQ: 1 ng ml^−1. Transitions: for compound 19 Q1/Q3: 301.1/86CV 14 CE16; for I.S. (compound 14) 315.2/238CV 14, CE19; LLOQ: 1 ng mL^−1. Pharmacokinetic analysis was performed by non‐compartmental analysis (NCA) using the WinNonlin 5.1 software (Pharsight, Mountain View, CA, USA. Absolute oral bioavailability (F) was calculated by linear trapezoidal rule using the relationship: F=[doseIV×AUCoral o‐∞/doseoral×AUCIV o‐∞]×100.

human MT1 receptors [9] = molecular target: T1, human MT1 receptors; experiment: Agonist activity at MT1, cell impedance assay (cellular dielectric spectroscopy); assay type: cell-based; conditions: for EC50: cell impedance assay, CHO cells expressing human MT1, mean±SD, triplicate; for Emax: read-out: MT1 E max
Procedure: as §1, §2

[10] = buffer pH 1.0, simulated gastric fluid, pH 1.0 buffer, read-out: Solubility pH 1.0
[11] = buffer pH 7.4, aqueous buffer, pH 7.4 buffer, read-out: Solubility pH 7.4
[12] = Sprague-Dawley, IV bolus 5 mg kg^−1
[13] = Sprague-Dawley, PO gavage 40 mg kg^−1
[14] = Sprague-Dawley CD, IV bolus 5 mg kg^−1
[15] = Sprague-Dawley CD, PO gavage 40 mg kg^−1

T1 sequence (P48039 whole entry): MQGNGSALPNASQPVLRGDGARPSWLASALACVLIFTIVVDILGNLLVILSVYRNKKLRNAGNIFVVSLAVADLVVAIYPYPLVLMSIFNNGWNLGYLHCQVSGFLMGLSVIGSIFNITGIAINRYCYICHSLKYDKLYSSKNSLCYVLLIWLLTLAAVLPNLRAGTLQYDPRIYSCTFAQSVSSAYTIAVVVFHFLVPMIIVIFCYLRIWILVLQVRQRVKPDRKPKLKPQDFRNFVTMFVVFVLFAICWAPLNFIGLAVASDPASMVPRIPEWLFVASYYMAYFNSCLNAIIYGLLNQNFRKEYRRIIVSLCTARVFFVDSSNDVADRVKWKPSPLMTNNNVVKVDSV

| SMILES | CLi Rat LM (intrinsic clearance) [1] | half-life at 5 μM [1] | CLi Human LM (intrinsic clearance) [2] | half-life at 5 μM [2] | solubility [3, 10] | solubility [3, 11] | logD ([4]; n-octanol/water (MOPS buffer)) | Ki (human MT1 receptors [5]) | melting point | Ki (human MT2 receptors [6]) | EC50 (human MT2 receptors [7]) | functional profile (intrinsic activity) (human MT2 receptors [7]) | Emax (human MT2 receptors [7]) | F (oral bioavailability) [8] | EC50 (human MT1 receptors [9]) | Emax (human MT1 receptors [9]) | also measured |
| --- | --- | --- | --- | --- | --- | --- | --- | --- | --- | --- | --- | --- | --- | --- | --- | --- | --- |
| CCCNC(=O)NCCN(c1ccccc1)c1cccc(OC)c1 [Compound 6 c, 1‐{2‐[(3‐Methoxyphenyl)phenylamino]ethyl}‐3‐propylurea] | 218.4±21.2 μL min^−1 mg prot^−1 | 3.2 ± 0.3 min | 95.7±14.7 μL min^−1 mg prot^−1 | 7.4 ± 1.2 min | 17.7 ± 0.9 µg/mL (≈ 54.1 µM) | 14.3 ± 0.1 µg/mL (≈ 43.7 µM) | 3.91 ± 0.02 | 57 ± 0.1 nM | 63 to 65 °C | 1.7 ± 0.08 nM |  |  |  |  |  |  |  |
| CC(=O)NCCN(c1ccc(F)cc1)c1cccc(C(F)F)c1 [Compound 10, N ‐(2‐{[3‐(Difluoromethyl)phenyl](4‐fluorophenyl)amino}ethyl)acetamide] | 58.0±8.2 μL min^−1 mg prot^−1 | 12.2 ± 1.5 min | 12.8±1.3 μL min^−1 mg prot^−1 | 55.4 ± 6.8 min | 54.9 ± 1.1 µg/mL (≈ 170 µM) | 40.6 ± 0.1 µg/mL (≈ 126 µM) | 3.45 ± 0.02 | > 100 nM | 76 to 77 °C | 35 ± 0.35 nM |  |  |  |  |  |  |  |
| COc1cccc(N(CCNC(C)=O)c2ccsc2)c1 [Compound 11, N ‐{2‐[(3‐Methoxyphenyl)(thiophen‐3‐yl)amino]ethyl}acetamide] | 175.4±22.3 μL min^−1 mg prot^−1 | 4 ± 0.5 min | 17.5±2.4 μL min^−1 mg prot^−1 | 40.1 ± 5.3 min | 162 ± 4.4 µg/mL (≈ 556 µM) | 92.5 ± 3.5 µg/mL (≈ 319 µM) | 2.74 ± 0.01 | 0.7 ± 0.1 nM | 76 to 77 °C | 0.07 ± 0.02 nM |  |  |  |  |  |  |  |
| COc1cccc(N(CCNC(C)=O)c2cccc(CO)c2)c1 [Compound 14, N ‐{2‐[(3‐Hydroxymethylphenyl)(3‐methoxyphenyl)amino]ethyl} acetamide] | 241.4±28.5 μL min^−1 mg prot^−1 | 2.9 ± 0.3 min | 10.8±1.2 μL min^−1 mg prot^−1 | 64.9 ± 6.9 min | > 1000 µg/mL | > 1000 µg/mL | 2.04 ± 0.01 | > 100 nM |  | 3.5 ± 0.05 nM | 6.8 ± 0.3 nM | MT2‐selective partial agonist | 71 ± 2% | very low | 53 ± 0.5 nM | 32 ± 3% | increase of rat microsomal stability compared to UCM765 ([1]; rat liver microsomes, versus UCM765): approximately 1.5 fold; increase of human microsomal stability compared to UCM765 ([2]; human liver microsomes, versus UCM765): approximately 1.5 fold; Vd [8, 12]: 0.9 ± 0.2 L/kg; bioavailability ([8]; Sprague-Dawley): 0.5%; AUC [8, 12]: 1110 ng·h/mL; Cmax [8, 12]: 2760 ± 479 ng/mL; clearance [8, 12]: 76.2 ± 10.3 mL/min/kg; half-life [8, 12]: 11.5 ± 1 min; AUC [8, 13]: 43.8 ng·h/mL; Cmax [8, 13]: 75.6 ± 39.7 ng/mL; half-life [8, 13]: 19.8 ± 1.9 min |
| COc1ccc(Br)c(N(C)CCNC(C)=O)c1 [Compound 19, N ‐{2‐[(2‐Bromo‐5‐methoxyphenyl)methylamino]ethyl}acetamide] | 39.6±3.1 μL min^−1 mg prot^−1 | 17.6 ± 1.5 min | 8.9±1.4 μL min^−1 mg prot^−1 | 78.5 ± 12.2 min | > 1000 µg/mL | 823 ± 34.7 µg/mL (≈ 2730 µM) |  | 18 ± 0.7 nM |  | 2.4 ± 0.1 nM | 0.83 ± 0.05 nM | full agonist | 93 ± 2% | moderate | 4.4 ± 0.2 nM | 94 ± 4% | logD ([4]; n-octanol/water (50 mM MOPS buffer)): 1.85 ± 0.01; Vd [8, 14]: 0.7 ± 0.1 L/kg; bioavailability ([8]; Sprague-Dawley CD): 3.6%; AUC [8, 14]: 1100 ng·h/mL; Cmax [8, 14]: 2970 ± 384 ng/mL; clearance [8, 14]: 76.4 ± 8.8 mL/min/kg; half-life [8, 14]: 13.5 ± 0.3 min; AUC [8, 15]: 319 ng·h/mL; Cmax [8, 15]: 456 ± 178 ng/mL; half-life [8, 15]: 26.2 ± 0.9 min |

— article PMC8518537, “N‐(Anilinoethyl)amide Melatonergic Ligands with Improved Water Solubility and Metabolic Stability” (Chemmedchem, 2021)
